This note sets out measurements from ChEMBL document CHEMBL2029212, “Discovery of 1,4-disubstituted 3-cyano-2-pyridones: a new class of positive allosteric modulators of the metabotropic glutamate 2 receptor” (J Med Chem, 2012).

Active and inactive are the calls of the source. The calls are words filed in the database; no cut-off is given here. Bounds are passed on as bounds.

Series [1] can be described thus: Drug metabolism in human liver microsomes at 5 uM after 15 mins. The series is classed as ADME, Microsome. The settings on record: read-out: Drug metabolism.
The nature of series [2]: Drug level in Swiss mouse brain at 10 mg/kg, sc after 1 hr. As to conditions: read-out: Drug uptake. Further details: dose 10 mg/kg, route subcutaneous. The series is classed as ADME, organism-based.
A short description of series [3]: Drug level in Swiss mouse brain at 10 mg/kg, sc after 1.5 hrs. The series is classed as ADME, organism-based. Further details: dose 10 mg/kg, route subcutaneous. The settings on record: read-out: Drug uptake.
The target of series [4] is T1, Metabotropic glutamate receptor 2 (Homo sapiens, UniProt Q14416). Put plainly: Positive allosteric modulation of human mGlu2 receptor expressed in CHO cells assessed as glutamate-induced [35S]GTPgammaS binding after 30 mins by liquid scintillation counting relative to glutamate. The series is classed as functional, cell-based.
Target sequence in this assay (Q14416 19-872 limits assumed): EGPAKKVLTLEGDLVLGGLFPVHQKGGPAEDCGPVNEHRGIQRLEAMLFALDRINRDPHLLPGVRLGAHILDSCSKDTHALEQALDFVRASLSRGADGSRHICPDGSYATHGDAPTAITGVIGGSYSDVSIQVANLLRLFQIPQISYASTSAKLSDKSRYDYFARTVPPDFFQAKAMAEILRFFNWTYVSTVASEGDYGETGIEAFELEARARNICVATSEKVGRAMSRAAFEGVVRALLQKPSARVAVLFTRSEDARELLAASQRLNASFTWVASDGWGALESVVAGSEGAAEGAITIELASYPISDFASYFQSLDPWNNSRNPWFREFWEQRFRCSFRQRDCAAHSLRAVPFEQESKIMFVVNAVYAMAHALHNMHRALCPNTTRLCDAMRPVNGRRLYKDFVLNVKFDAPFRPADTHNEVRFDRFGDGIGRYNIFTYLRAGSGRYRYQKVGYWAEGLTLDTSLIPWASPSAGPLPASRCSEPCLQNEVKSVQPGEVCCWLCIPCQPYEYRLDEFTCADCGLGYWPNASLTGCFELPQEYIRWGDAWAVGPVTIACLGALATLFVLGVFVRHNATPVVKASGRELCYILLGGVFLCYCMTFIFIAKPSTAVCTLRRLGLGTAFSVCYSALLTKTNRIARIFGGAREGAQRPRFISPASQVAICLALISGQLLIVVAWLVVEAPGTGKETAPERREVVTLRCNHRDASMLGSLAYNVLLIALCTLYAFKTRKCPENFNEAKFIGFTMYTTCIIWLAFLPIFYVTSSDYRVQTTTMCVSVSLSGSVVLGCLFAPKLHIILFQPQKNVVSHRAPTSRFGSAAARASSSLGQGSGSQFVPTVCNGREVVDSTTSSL
For series [5], the system named is Brain. Put plainly: Ratio of drug level in Swiss mouse brain at 10 mg/kg, sc after 1.5 hrs to drug level in Swiss mouse brain at 10 mg/kg, sc after 1 hr. Format: ADME, organism-based. The settings on record: in vivo.
The nature of series [6]: Ratio of drug level in brain to plasma in Swiss mouse at 10 mg/kg, sc after 1 hr. The series is classed as ADME, organism-based. Further details: dose 10 mg/kg, route subcutaneous. The settings on record: read-out: BPR.
A short description of series [7]: Drug metabolism in rat liver microsomes at 5 uM after 15 mins. The series is classed as ADME, Microsome. As to conditions: read-out: Drug metabolism. A general note: Liver microsomes are a subcellular fraction often used to study metabolism.
The nature of series [8]: Drug level in Swiss mouse brain at 10 mg/kg, sc after 0.5 hrs. Format: ADME, organism-based. The settings on record: read-out: Drug uptake. Also on record: dose 10 mg/kg, route subcutaneous.
The target in series [9] is hERG (Homo sapiens, UniProt Q12809). Put plainly: Inhibition of human ERG expressed in HEK293 cells assessed as whole cell current at 3 uM after 5 mins by automated patch-clamp assay relative to control. Format: cell-based. As to conditions: HEK293 cells expressing hERG. (Patch clamp records ionic current or voltage across a cell membrane.)
The nature of series [10]: Aqueous solubility of the compound in 20% HP-beta-CD buffer at pH 4. The series is classed as physicochemical.
Series [11] has as its target T2, CYP3A4 (Homo sapiens, UniProt P08684). Put plainly: Inhibition of CYP3A4 at 1 uM. Format: ADME.
Series [12] deals with T3, CYP2C9 (Homo sapiens, UniProt P11712). Put plainly: Inhibition of CYP2C9 at 1 uM. Format: ADME.
The target of series [13] is T1, Metabotropic glutamate receptor 2. Put plainly: Positive allosteric modulation of human mGlu2 receptor expressed in CHO cells assessed as glutamate-induced [35S]GTPgammaS binding after 30 mins by liquid scintillation counting. Format: functional, cell-based. On the technique in general: Binding of GTPγS marks nucleotide exchange on a G protein.
Target sequence in this assay (Q14416 whole entry): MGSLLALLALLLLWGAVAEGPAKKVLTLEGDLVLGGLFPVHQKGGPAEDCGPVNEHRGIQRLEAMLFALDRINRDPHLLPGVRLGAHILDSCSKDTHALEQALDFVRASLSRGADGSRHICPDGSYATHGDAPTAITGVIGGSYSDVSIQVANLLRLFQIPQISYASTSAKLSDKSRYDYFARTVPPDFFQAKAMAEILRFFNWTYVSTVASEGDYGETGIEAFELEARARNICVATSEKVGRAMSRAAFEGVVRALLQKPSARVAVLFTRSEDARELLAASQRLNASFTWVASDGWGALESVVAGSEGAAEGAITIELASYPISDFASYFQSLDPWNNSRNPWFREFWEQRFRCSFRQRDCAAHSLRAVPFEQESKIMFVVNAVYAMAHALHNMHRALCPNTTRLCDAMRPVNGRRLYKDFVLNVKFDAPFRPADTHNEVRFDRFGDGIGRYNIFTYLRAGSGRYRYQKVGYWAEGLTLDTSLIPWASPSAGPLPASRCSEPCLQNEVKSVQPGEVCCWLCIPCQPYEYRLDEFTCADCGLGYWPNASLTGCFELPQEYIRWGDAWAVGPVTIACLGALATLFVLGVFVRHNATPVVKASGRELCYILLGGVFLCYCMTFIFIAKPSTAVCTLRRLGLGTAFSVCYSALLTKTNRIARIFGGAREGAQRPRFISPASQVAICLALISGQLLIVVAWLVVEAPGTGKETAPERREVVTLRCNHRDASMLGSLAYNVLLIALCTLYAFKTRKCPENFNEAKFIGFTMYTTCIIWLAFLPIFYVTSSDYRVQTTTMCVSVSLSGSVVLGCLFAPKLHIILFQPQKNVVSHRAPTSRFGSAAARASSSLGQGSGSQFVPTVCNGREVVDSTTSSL
Series [14] addresses T4, CYP2D6 (Homo sapiens, UniProt P10635). Put plainly: Inhibition of CYP2D6 at 1 uM. The series is classed as ADME.
Series [15] deals with T5, CYP1A2 (Homo sapiens, UniProt P05177).
T5 sequence (P05177 whole entry): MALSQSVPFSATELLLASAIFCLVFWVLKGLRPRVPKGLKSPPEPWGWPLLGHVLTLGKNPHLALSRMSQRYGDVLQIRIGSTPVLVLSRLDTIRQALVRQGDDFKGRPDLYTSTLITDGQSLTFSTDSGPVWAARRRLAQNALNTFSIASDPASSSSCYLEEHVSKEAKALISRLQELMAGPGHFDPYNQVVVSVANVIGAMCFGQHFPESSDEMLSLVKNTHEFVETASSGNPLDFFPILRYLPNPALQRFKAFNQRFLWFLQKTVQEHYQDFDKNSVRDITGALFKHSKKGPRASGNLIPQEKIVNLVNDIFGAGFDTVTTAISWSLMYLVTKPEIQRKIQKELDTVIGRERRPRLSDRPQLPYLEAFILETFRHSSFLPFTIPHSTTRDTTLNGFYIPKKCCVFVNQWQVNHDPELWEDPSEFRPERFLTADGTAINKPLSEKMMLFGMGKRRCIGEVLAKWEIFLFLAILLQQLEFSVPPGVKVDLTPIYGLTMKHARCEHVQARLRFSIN
Put plainly: Inhibition of CYP1A2 at 1 uM. The series is classed as ADME.

Series [16] concerns the target T6, CYP2C19 (Homo sapiens, UniProt P33261). Put plainly: Inhibition of CYP2C19 at 1 uM. Format: ADME.
Series [17] is described as follows: Aqueous solubility of the compound in 20% HP-beta-CD buffer at pH 4 to 7.4. The series is classed as physicochemical.
Series [18] concerns the target T2, CYP3A4. Put plainly: Inhibition of CYP3A4 at 5 uM. The series is classed as ADME.
The test system of series [19] is Rattus norvegicus. Put plainly: Effect on sleep-awake cycle in Sprague-Dawley rat EEG model assessed as active awake time at 10 mg/kg, sc by sleep-wake electroencephalogram assay. The series is classed as functional, organism-based. Also on record: dose 10 mg/kg.
In series [20] the test system is Rattus norvegicus. Put plainly: Effect on sleep-awake cycle in Sprague-Dawley rat EEG model assessed as passive wake time at 10 mg/kg, sc by sleep-wake electroencephalogram assay. The series is classed as functional, organism-based. Further details: dose 10 mg/kg.
Series [21] deals with Metabotropic glutamate receptor 4 (Homo sapiens) (UniProt Q14833). Put plainly: Agonist activity at human mGluR4 expressed in L929 cells by [35S]GTPgammaS binding assay. Format: functional, cell-based.
Series [22] deals with Sodium-dependent noradrenaline transporter (Homo sapiens) (UniProt P23975). Put plainly: Binding affinity to norepinephrine transporter at 10 uM.
Series [23] deals with Metabotropic glutamate receptor 4 (Homo sapiens) (UniProt Q14833). Put plainly: Antagonist activity at human mGluR4 expressed in L929 cells by [35S]GTPgammaS binding assay. The series is classed as functional, cell-based.
Series [24] deals with T1, Metabotropic glutamate receptor 2. Put plainly: Positive allosteric modulation of human mGlu2 receptor expressed in CHO cells assessed as fold shift in glutamate-induced [35S]GTPgammaS binding at 3 uM after 30 mins by liquid scintillation counting. Format: functional, cell-based.
Target sequence in this assay (Q14416 19-872 limits assumed): as the sequence (Q14416 19-872 limits assumed) above
Series [25] deals with Rattus norvegicus. Put plainly: Effect on sleep-awake cycle in Sprague-Dawley rat EEG model assessed as increase of REM sleep onset latency at 10 mg/kg, sc by sleep-wake electroencephalogram assay. Format: functional, organism-based. Further details: dose 10 mg/kg.
Series [26] has as its system Rattus norvegicus. Put plainly: Effect on sleep-awake cycle in Sprague-Dawley rat EEG model assessed as light sleep time at 10 mg/kg, sc by sleep-wake electroencephalogram assay. Format: functional, organism-based. Further details: dose 10 mg/kg.
Series [27] addresses Metabotropic glutamate receptor 5 (Homo sapiens) (UniProt P41594). Put plainly: Antagonist activity at human mGluR5 expressed in HEK293 cells by fluorescent Ca2+ assay. The series is classed as functional, cell-based.
For series [28], the target named is Metabotropic glutamate receptor 6 (Rattus norvegicus) (UniProt P35349). Put plainly: Antagonist activity at rat mGluR6 expressed in CHO cells by [35S]GTPgammaS binding assay. Format: functional, cell-based.
Series [29] shares this target. Put plainly: Agonist activity at rat mGluR6 expressed in CHO cells by [35S]GTPgammaS binding assay. The series is classed as functional, cell-based.
Series [30] relates to Rattus norvegicus. Put plainly: Effect on sleep-awake cycle in Sprague-Dawley rat EEG model assessed as deep sleep time at 10 mg/kg, sc by sleep-wake electroencephalogram assay. Format: functional, organism-based. Further details: dose 10 mg/kg.
For series [31], the target named is Metabotropic glutamate receptor 1 (Homo sapiens) (UniProt Q13255). Put plainly: Agonist activity at human mGluR1 expressed in HEK293 cells by fluorescent Ca2+ assay. Format: functional, cell-based.
The target of series [32] is Metabotropic glutamate receptor 3 (Homo sapiens) (UniProt Q14832). Put plainly: Agonist activity at human mGluR3 expressed in HEK293 cells by fluorescent Ca2+ assay. Format: functional, cell-based.
For series [33], the system named is Rattus norvegicus. Put plainly: Effect on sleep-awake cycle in Sprague-Dawley rat EEG model assessed as intermediate state of sleep time at 10 mg/kg, sc by sleep-wake electroencephalogram assay. The series is classed as functional, organism-based. Also on record: dose 10 mg/kg.
Series [34] has as its target Metabotropic glutamate receptor 1 (Homo sapiens) (UniProt Q13255). Put plainly: Antagonist activity at human mGluR1 expressed in HEK293 cells by fluorescent Ca2+ assay. The series is classed as functional, cell-based.
Series [35] concerns the target Metabotropic glutamate receptor 3 (Homo sapiens) (UniProt Q14832). Put plainly: Antagonist activity at human mGluR3 expressed in HEK293 cells by fluorescent Ca2+ assay. The series is classed as functional, cell-based.
The target in series [36] is Metabotropic glutamate receptor 5 (Homo sapiens) (UniProt P41594). Put plainly: Agonist activity at human mGluR5 expressed in HEK293 cells by fluorescent Ca2+ assay. The series is classed as functional, cell-based.
For series [37], the system named is Rattus norvegicus. Put plainly: Inhibition of rapid eye movement sleep in Sprague-Dawley rat EEG model at 10 mg/kg, sc up to 2 hrs by sleep-wake electroencephalogram assay. Further details: dose 10 mg/kg. Format: functional, organism-based.
Series [38] concerns the target T3, CYP2C9. Put plainly: Inhibition of CYP2C9 at 5 uM. Format: ADME.
Series [39] addresses T4, CYP2D6. Put plainly: Inhibition of CYP2D6 at 5 uM. The series is classed as ADME.
Series [40] addresses T6, CYP2C19. Put plainly: Inhibition of CYP2C19 at 5 uM. The series is classed as ADME.
Series [41] addresses T5, CYP1A2. Put plainly: Inhibition of CYP1A2 at 5 uM. The series is classed as ADME.

Chain of hERG (Q12809 whole entry): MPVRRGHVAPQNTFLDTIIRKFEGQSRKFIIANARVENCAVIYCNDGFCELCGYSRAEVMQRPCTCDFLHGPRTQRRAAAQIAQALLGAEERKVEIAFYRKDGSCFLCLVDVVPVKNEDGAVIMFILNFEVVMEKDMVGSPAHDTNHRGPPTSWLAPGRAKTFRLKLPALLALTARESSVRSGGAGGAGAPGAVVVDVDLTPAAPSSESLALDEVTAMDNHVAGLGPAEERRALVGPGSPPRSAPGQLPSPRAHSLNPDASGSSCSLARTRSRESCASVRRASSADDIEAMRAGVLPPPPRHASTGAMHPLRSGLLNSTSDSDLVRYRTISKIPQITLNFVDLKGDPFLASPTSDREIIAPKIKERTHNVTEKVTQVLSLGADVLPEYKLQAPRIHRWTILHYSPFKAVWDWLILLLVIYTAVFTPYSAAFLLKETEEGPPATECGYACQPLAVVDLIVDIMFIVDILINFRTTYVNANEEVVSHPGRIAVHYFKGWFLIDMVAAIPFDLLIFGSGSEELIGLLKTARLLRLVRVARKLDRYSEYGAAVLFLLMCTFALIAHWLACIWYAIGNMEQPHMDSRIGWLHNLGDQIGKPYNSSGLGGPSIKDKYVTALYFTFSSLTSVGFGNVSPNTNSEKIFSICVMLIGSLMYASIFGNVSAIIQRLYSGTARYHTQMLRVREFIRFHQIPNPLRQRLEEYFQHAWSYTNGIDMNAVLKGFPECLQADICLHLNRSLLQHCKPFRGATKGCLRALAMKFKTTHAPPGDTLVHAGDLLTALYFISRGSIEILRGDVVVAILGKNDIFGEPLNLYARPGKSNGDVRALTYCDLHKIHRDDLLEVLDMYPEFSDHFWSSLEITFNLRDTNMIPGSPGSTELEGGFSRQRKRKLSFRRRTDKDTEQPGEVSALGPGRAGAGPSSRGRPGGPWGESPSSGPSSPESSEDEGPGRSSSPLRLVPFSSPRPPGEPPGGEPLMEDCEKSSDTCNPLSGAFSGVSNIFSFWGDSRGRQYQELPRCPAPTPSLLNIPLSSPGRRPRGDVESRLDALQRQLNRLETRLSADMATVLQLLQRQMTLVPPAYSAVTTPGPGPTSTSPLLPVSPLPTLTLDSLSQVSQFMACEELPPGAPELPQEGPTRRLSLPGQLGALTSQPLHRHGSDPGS
Chain of Metabotropic glutamate receptor 6 (Rattus norvegicus) (P35349 whole entry): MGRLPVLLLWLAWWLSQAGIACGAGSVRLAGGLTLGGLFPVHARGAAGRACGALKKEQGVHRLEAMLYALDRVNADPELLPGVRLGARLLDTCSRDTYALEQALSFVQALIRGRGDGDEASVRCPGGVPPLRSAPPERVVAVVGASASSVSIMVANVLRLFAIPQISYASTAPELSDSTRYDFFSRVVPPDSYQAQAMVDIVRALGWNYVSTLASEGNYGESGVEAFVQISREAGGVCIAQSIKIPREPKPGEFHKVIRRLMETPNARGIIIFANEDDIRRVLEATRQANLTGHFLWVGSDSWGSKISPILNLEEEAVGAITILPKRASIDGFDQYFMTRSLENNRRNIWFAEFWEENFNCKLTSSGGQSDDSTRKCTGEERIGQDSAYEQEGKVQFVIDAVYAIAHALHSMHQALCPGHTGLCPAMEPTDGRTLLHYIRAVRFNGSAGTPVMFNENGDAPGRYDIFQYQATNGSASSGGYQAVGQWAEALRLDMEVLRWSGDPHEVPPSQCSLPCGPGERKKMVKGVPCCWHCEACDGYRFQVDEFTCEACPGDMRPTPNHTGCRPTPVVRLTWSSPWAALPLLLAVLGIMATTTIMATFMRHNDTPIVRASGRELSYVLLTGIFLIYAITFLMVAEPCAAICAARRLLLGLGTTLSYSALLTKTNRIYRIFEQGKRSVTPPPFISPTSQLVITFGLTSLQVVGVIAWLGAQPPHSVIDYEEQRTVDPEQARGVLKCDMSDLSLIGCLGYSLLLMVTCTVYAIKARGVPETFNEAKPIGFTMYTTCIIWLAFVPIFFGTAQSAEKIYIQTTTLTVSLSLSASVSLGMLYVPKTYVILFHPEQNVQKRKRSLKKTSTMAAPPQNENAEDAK
Chain of Metabotropic glutamate receptor 3 (Homo sapiens) (Q14832 23-879 limits assumed): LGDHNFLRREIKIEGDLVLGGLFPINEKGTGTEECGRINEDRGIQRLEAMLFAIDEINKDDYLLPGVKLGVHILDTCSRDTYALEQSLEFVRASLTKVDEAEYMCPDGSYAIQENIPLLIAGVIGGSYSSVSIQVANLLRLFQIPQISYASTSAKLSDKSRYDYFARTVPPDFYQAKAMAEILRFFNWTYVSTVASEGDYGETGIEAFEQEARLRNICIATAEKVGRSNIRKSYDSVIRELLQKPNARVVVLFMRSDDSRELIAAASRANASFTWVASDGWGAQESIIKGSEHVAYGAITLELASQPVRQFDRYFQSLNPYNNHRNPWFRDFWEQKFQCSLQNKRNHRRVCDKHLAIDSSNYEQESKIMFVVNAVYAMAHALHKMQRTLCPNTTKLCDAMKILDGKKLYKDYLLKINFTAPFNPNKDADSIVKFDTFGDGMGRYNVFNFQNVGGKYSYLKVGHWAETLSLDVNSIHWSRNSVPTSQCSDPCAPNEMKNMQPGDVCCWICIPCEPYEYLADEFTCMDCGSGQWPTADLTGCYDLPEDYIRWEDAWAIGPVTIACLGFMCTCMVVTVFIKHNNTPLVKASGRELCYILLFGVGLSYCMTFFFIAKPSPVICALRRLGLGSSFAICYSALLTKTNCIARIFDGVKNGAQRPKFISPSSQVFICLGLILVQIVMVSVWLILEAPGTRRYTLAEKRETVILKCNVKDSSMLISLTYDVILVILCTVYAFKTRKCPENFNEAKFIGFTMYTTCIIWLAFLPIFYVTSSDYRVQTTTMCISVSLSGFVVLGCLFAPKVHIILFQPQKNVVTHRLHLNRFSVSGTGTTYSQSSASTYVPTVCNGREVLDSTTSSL

Consider `CCCCn1ccc(-c2ccc(Oc3ccnc(C)c3)cc2)c(C#N)c1=O`, for which the metabolised at 0.25 h, 5 µM came to 31% in [1] and 44% in series [7]. The concentration at 1 h in [2] is 994 ng/g. For the same compound, the concentration at 1.5 h in [3] amounted to 592 ng/g. In addition, the Emax in series [4] was determined as 243%. For the same compound, the Ratio in series [5] came out at 2. Moreover, the Kp at 1 h in [6] amounted to 0.5. Besides, the concentration at 0.5 h in series [8] is 1160 ng/g. Moreover, the inhibition at 5 min, 3 µM in series [9] was determined as 53%.
`CC(C)CCn1ccc(-c2ccc(Oc3ccncc3)cc2)c(C#N)c1=O` had a solubility in series [10] of at least 4000 µg/mL. For the same compound, the metabolised at 0.25 h, 5 µM in [1] was 27%; in series [7] it was 41%. In addition, the inhibition at 1 µM in series [11] worked out at 70%; in [12], 82%; in series [14], 84%; in series [15] it was 80%; in [16] it was 97%. Moreover, the EC50 in series [13] was 550 nM. Besides, in series [4], the Emax was 245%. Besides, in series [9], the inhibition at 5 min, 3 µM was 52%.
Consider `CC(C)CCn1ccc(-c2ccc(Oc3ccccc3)cc2)c(C#N)c1=O`, for which the figures for the metabolised at 0.25 h, 5 µM in [1] and in [7] were 36% and 32%, respectively. Further, the EC50 in series [13] turned out to be 42 nM. Further, the Emax in [4] was determined as 188%. The compound also came in with a solubility in [17] of over 1 µg/mL. Also, the inhibition at 5 µM in series [18] was under 50%.
For the compound `CCCCn1ccc(-c2ccc(Oc3ccnc(C)c3)c(F)c2)c(C#N)c1=O`, the outcome in [19], in [20], in [21], in series [23], in series [26] and in series [27] was inactive. For the same compound, the result in [28], in [29], in series [30], in series [31], in [32] and in series [33] was inactive. Moreover, the result in series [34], in series [35] and in series [36] was inactive. The compound further showed an Activity in series [22] of over 50%. The figures for the metabolised at 0.25 h, 5 µM in series [1] and in series [7] were 33% and 50%, respectively. The concentration at 1 h in series [2] was determined as 1120 ng/g. Besides, in [3], the concentration at 1.5 h came out at 1020 ng/g. For the same compound, in [24], the fold change (FC) was 11. In series [13], the EC50 amounted to 316 nM. For the same compound, the Emax in series [4] is 233%. Further, in series [25], the result was Active. For the same compound, the Kp at 1 h in [6] came to 0.6. Besides, the concentration at 0.5 h in series [8] turned out to be 1280 ng/g. Also, the inhibition at 5 min, 3 µM in [9] stood at 21%. The inhibition result in series [37] is “Active”.
For the compound `Cc1cc(Oc2ccc(-c3ccn(CCC(C)C)c(=O)c3C#N)cc2)ccn1`, the inhibition at 5 µM in series [38], in series [39], in series [40] and in series [41] was under 50% throughout. In addition, the metabolised at 0.25 h, 5 µM in series [1] is 61%; in series [7], 47%. Further, the EC50 in series [13] was found to be 447 nM. Also, in series [4], the Emax is 266%.

Usually Emax stands for the maximal effect, on the per cent scale that the assay sets. In general, inhibition refers to the percentage by which the read-out fell short of the control. For orientation: solubility means the dissolved amount per volume that the medium holds. Low values mean little dissolved substance, high ones much dissolved substance. The EC50 is the midpoint of the concentration-response curve.
